Results taken from patent US8778974B2, “Trisubstituted 1,2,4 triazoles” (Janssen Pharmaceutica NV, priority 2008, dated 2014).

Target: T1, hα7-wt nAChR-expressing GH4Cl cells (Homo sapiens, UniProt P36544)
T1 construct: expressed in transfected cells
Assay: Patch-clamp current recording (whole-cell), potentiation of choline 1 mM response, PAM type
Format: cell-based
Parameters: key to Pam type: Type 0 compounds minimally enhance the effect size of the current elicited by 1 mM choline.; Type 1 compounds enhance the effect size of the current elicited by 1 mM choline but minimally alter the kinetics of the receptor.; Type 2 compounds enhance the effect size of the current elicited by 1 mM choline while reducing the rate and/or the extent of desensitization.; Type 3 compounds enhance the effect size of the current elicited by 1 mM choline. When tested at higher concentrations up to 10 μM they completely inhibit desensitization, in particular a 1 mM choline application of 250 milliseconds.; Type 4 compounds allow for an initial desensitization of the receptor followed by a re-opening of the receptor during agonist application
Details: for EC50: according to Ex. D.2, "<5" = no top plateau reached at maximal concentration, read-out: Potency (pEC50) (converted); for Pam type: patch-clamp current recording, 1 mM choline
Description: The compounds of the present invention are classified as type 1-4, based on qualitative kinetic properties, as determined by whole-cell voltage-clamp recordings. This classification is based on the effect of an α7 PAM compound, as described hereinbefore, on the signal elicited by an agonist application. In particular, said agonist is choline at a concentration of 1 mM. In a preferred experimental setting, said α7 PAM compound and choline are simultaneously applied to the cell, as described hereinafter. Desensitization is defined as the closure of the receptor upon activation during the application of the agonist in whole-cell voltage-clamp electrophysiology measurements seen as the reduction of the […] current after initial activation by the agonist.
The definition of the PAM types 1-4 is described hereinafter: • Type 0 compounds minimally enhance the effect size of the current elicited by 1 mM choline. • Type 1 compounds enhance the effect size of the current elicited by 1 mM choline but minimally alter the kinetics of the receptor. In particular, the rate and the extent of desensitization, elicited by the agonist, is not affected. The compound-modulated response to 1 mM choline, therefore, is a close to linear scaling of the 1 mM choline response in absence of the α7 PAM compound. • Type 2 compounds enhance the effect size of the current elicited by 1 mM choline while reducing the rate and/or the extent of desensitization. • Type 3 compounds enhance the effect size of the current elicited by 1 mM choline. […] At low-potency concentrations of the α7 PAM compound, the agonist-induced activation, which is followed by desensitization, can still be separated from the compound-induced re-opening as an initial inward current-maximum. At higher potency concentrations of the α7 PAM compound, the re-opening occurs faster than the closure due to desensitization so that the initial current-maximum disappears.
Patch-clamp Current Recording
Patch-clamp recording from mammalian cells has provided a powerful means of assessing the function of membrane-bound proteins thought to be subunits of ligand-gated ion channels. Activation of such proteins by endogenous or exogenous ligands cause opening of a pore associated with the receptor through which ions flow down their electrochemical gradient. In the case of the hα7-wt nAChR-expressing GH4Cl recombinant cell line the preferential permeability to calcium of this receptor means that calcium flows into the cell upon activation by ACh, choline and other nicotinic ligands giving rise to a calcium current. Since this receptor rapidly desensitizes in the presence of agonist it is important an application system is used which is capable of very rapid switching of solutions (<100 ms) to prevent partial or full desensitisation of receptor responses coincident with the time of agonist application. Consequently, a second convenient technique to assess the enhancement of nicotinic efficacy is patch-clamp recording from hα7-wt nAChR-expressing GH4Cl cells coupled with a rapid-application system.
• a) Assay buffers • The external recording solution consisted of 152 mM NaCl, 5 mM KCl, 1 mM MgCl2, 1 mM Calcium, 10 mM HEPES; pH 7.3. The internal recording solution consisted of 140 mM CsCl, 10 mM HEPES, 10 mM EGTA, 1 mM MgCl2, pH 7.3. • b) Patch-clamp recording was carried out using a Patch-clamp amplifier (Multiclamp 700A, Axon Instruments, Calif., USA). hα7-wt nAChR-expressing GH4Cl cells were patch-clamp in the whole cell configuration (Hamill et al, 1981) with a borosilicate glass electrode of 1.5-3 MΩ tip resistance when filled with the internal recording solution. Recordings were made on cells with membrane resistance >500 MΩ and more preferably 1GΩ and series resistance <15 MΩ with at least 60% series resistance compensation. […]

T1 sequence (P36544 23-502): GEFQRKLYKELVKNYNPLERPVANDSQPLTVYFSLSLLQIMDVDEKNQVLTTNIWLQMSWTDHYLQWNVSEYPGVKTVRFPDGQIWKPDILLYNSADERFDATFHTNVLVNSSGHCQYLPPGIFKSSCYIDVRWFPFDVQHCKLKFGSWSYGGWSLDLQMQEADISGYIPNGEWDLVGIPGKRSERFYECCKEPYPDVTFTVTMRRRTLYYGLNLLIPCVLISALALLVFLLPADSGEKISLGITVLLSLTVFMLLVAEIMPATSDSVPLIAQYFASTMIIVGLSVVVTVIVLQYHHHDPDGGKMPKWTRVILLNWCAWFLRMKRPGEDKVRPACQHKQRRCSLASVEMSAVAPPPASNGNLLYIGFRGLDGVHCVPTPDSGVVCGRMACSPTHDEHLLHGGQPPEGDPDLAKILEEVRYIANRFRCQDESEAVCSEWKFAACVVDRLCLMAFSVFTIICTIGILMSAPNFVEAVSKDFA

SMILES	EC50 [nM]	Pam type
CCOC(=O)CCc1nc(Nc2ccc(F)c(C(F)(F)F)c2)nn1-c1ccc2c(c1)OCCO2 [E115]	158	–
CNC(=O)CCc1nc(Nc2ccc(F)c(C(F)(F)F)c2)nn1-c1ccc2c(c1)OCCO2 [E55]	525	4
CNC(=O)CCc1nc(Nc2ccc(F)c(C(F)(F)F)c2)nn1-c1ccc(OC)cc1 [E44]	661	–
CC[C@H](O)Cc1nc(Nc2ccc(F)c(F)c2F)nn1-c1ccnc(C)c1 [E130, (alphaS)-alpha-ethyl-1-(2-methyl-4-pyridinyl)-3-[(2,3,4-trifluorophenyl)amino]-1H-1,2,4-triazole-5-ethanol]	269	2
CCNc1cc(-n2nc(Nc3ccc(F)c(F)c3)nc2C[C@@H](O)CC)ccn1 [E136]	155	3
Cc1ccc(-n2nc(Nc3ccc4c(c3)OC(F)(F)O4)nc2CCC(=O)N(C)C)cn1 [E117]	191	4
Cc1ncccc1-n1nc(Nc2cccc(OC(F)(F)F)c2)nc1CCC(=O)N(C)C [E5, N,N-Dimethyl-1-(2-methyl-3-pyridinyl)-3-[[3-(trifluoromethoxy)phenyl]amino]-1H-1,2,4-triazole-5-propanamide]	1170	4
CN(C)C(=O)CCc1nc(Nc2cccc(OC(F)(F)F)c2)nn1-c1cccnc1 [E71]	617	4
CN(C)C(=O)CCc1nc(Nc2ccc(F)c(F)c2)nn1-c1ccc(OC(F)(F)F)cc1 [E66]	240	4
CCNC(=O)Cc1nc(Nc2ccc3c(c2)OC(F)(F)O3)nn1-c1cc(C)ncc1C [E163]	2510	4
CNC(=O)CCc1nc(Nc2ccc(F)c(C(F)(F)F)c2)nn1-c1ccc(OC)c(OC)c1 [E46]	1020	–
CC[C@H](O)Cc1nc(Nc2ccc(F)c(F)c2F)nn1-c1cc(C)nc(C)c1 [E127, (alphaS)-1-(2,6-dimethyl-4-pyridinyl)-alpha-ethyl-3-[(2,3,4-trifluorophenyl)amino]-1H-1,2,4-triazole-5-ethanol]	269	2
COc1ccc(-n2nc(Nc3ccc(F)c(C(F)(F)F)c3)nc2CCC(=O)N(C)C)cc1 [E62]	30.2	4
CNC(=O)CCc1nc(Nc2ccc(F)c(F)c2)nn1-c1ccc(OC)cc1 [E43]	2000	2
COc1ccc(-n2nc(Nc3ccc(F)c(F)c3)nc2CCC(=O)N(C)C)cc1 [E63]	60.3	4
O=C(CCc1nc(Nc2cccc(OC(F)(F)F)c2)nn1-c1cccnc1)N1CCC(O)C1 (stereo not drawn) [E79]	1260	–
O=C(CCc1nc(Nc2cccc(OC(F)(F)F)c2)nn1-c1cccnc1)N1CCCC1 [E78]	309	–
CNC(=O)Cc1nc(Nc2ccc(F)c(F)c2F)nn1-c1cc(C)nc(C)c1 [E209]	724	2
CN(C)C(=O)CCc1nc(Nc2ccc(F)c(F)c2)nn1-c1ccc2c(c1)OCCO2 [E3, 3-[(3,4-Difluorophenyl)amino]-1-(2,3-dihydro-1,4-benzodioxin-6-yl)-N,N-dimethyl-1H-1,2,4-triazole-5-propanamide]	43.7	4
Cc1cc(-n2nc(Nc3ccc(F)c(F)c3)nc2CC(=O)NC2CCC2)cc(C)n1 [E169]	295	2
CN(C)C(=O)CCc1nc(Nc2ccc(F)c(C(F)(F)F)c2)nn1-c1ccncc1 [E68]	105	–
COc1ccc(-n2nc(Nc3ccc(F)c(F)c3)nc2CCC(=O)N(C)C)cc1OC [E64]	525	4
CNC(=O)Cc1nc(Nc2ccc(F)c(F)c2)nn1-c1ccc2c(c1)OCCO2 [E36]	1740	4

SMILES	EC50 [nM]	Pam type
Cc1cc(-n2nc(Nc3cccc(Cl)c3F)nc2CC(=O)NCC2CC2)cc(C)n1 [E154]	219	2
CCOC(=O)CCc1nc(Nc2ccc(F)c(F)c2)nn1-c1ccc2c(c1)OCCO2 [E114]	151	–
CNC(=O)CCc1nc(Nc2ccc(F)c(F)c2)nn1-c1cccnc1 [E48]	> 10000	–
CC[C@H](O)Cc1nc(Nc2cc(Cl)cc(OC)c2)nn1-c1ccnc(C)c1 [E206]	170	4
CN(C)C(=O)CCc1nc(Nc2cccc(OC(F)(F)F)c2)nn1-c1ccncc1 [E69]	324	–
COc1ccc(-n2nc(Nc3cc(F)c(F)c(Br)c3)nc2CCC(=O)N(C)C)cc1 [E155]	28.8	1
CN(C)C(=O)CCc1nc(Nc2ccc(F)c(C(F)(F)F)c2)nn1-c1ccc2c(c1)OCCO2 [E77]	39.8	4
Cc1cc(-n2nc(Nc3cc(F)c(F)c(F)c3)nc2CCC(=O)N(C)C)cc(C)n1 [E264]	~28.8	–
CC[C@H](O)Cc1nc(Nc2cccc(C(F)(F)F)c2)nn1-c1ccnc(C)c1 [E204]	562	0
CC[C@H](O)Cc1nc(Nc2cc(Cl)cc(OC)c2)nn1-c1cc(C)nc(C)c1 [E205, (alphaS)-3-[(3-chloro-5-methoxyphenyl)amino]-1-(2,6-dimethyl-4-pyridinyl)-alpha-ethyl-1H-1,2,4-triazole-5-ethanol]	155	2
CC[C@H](O)Cc1nc(Nc2cc(F)cc(OC)c2)nn1-c1ccnc(C)c1 [E186, (alphaS)-alpha-ethyl-3-[(3-fluoro-5-methoxyphenyl)amino]-1-(2-methyl-4-pyridinyl)-1H-1,2,4-triazole-5-ethanol]	1020	4
Cc1cc(-n2nc(Nc3ccc(F)c(C(F)(F)F)c3)nc2CCO)ccn1 [E16]	525	–
CCOC(=O)CCc1nc(Nc2cccc(OC(F)(F)F)c2)nn1-c1cccnc1 [E108]	1350	–
CN(C)C(=O)CCc1nc(Nc2cccc(OC(F)(F)F)c2)nn1-c1ccc2c(c1)OCCO2 [E170]	39.8	4
CNC(=O)CCc1nc(Nc2ccc(F)c(F)c2)nn1-c1ccncc1 [E52]	> 30200	–
COc1ccc(-n2nc(Nc3ccc(F)c(C(F)(F)F)c3)nc2CCC(=O)N(C)C)cc1OC [E65]	70.8	4
CN(C)C(=O)CCc1nc(Nc2ccc(F)c(F)c2)nn1-c1ccncc1 [E67]	447	4
CC[C@H](O)Cc1nc(Nc2cccc(Cl)c2F)nn1-c1cc(C)nc(C)c1 [E172]	302	2
CN(C)C(=O)CCc1nc(Nc2ccc(F)c(C(F)(F)F)c2)nn1-c1cccnc1 [E72]	339	–
CC[C@H](O)Cc1nc(Nc2cc(F)cc(OC)c2)nn1-c1cc(C)nc(C)c1 [E190, (alphaS)-1-(2,6-dimethyl-4-pyridinyl)-alpha-ethyl-3-[(3-fluoro-5-methoxyphenyl)amino]-1H-1,2,4-triazole-5-ethanol]	398	2
CN(C)C(=O)CCc1nc(Nc2ccc3c(c2)OC(F)(F)O3)nn1-c1ccc2c(c1)OCCO2 [E176]	26.9	4
COc1ccc(-n2nc(Nc3ccc4c(c3)OC(F)(F)O4)nc2CCC(=O)N(C)C)cc1 [E178]	36.3	4
CN(C)C(=O)CCc1nc(Nc2cc(F)c(F)c(Br)c2)nn1-c1ccc2c(c1)OCCO2 [E151]	38	4
